Assay results published in patent US20250275993A1, “GLYCOSYLATION INHIBITORS AS THERAPEUTICS FOR STROKE” (The Regents of the University of California, priority 2022, published 2025).

What was measured:
Bip, CHOP, ATF-6 = test: Western blot of UPR responsive proteins in BCECs; type: cell-based, bovine
[1] = system: ERK, AKT, mTOR, CREB, ACC and eNOS; test: Western blot of signal transduction pathways in BCECs; type: cell-based, bovine
Protocol: (§1) Cells were allowed to reach-80% confluency in 12-well plates. […] At various time points, plates were taken out of the incubator and kept on ice. […] Lysates were collected and mixed with 4× Bolt LDS Sample Buffer (Novex, Carlsbad, CA) in the presence of Halt protease inhibitors and phosphatase inhibitor cocktail (ThermoFisher scientific, #NP0007). […] HUVECs (passage 6-8) were plated in EBM-2 basal medium (Lonza) with 0.2% FBS. Following overnight culture, cells were serum-starved in EBM-2 medium for 4 hrs prior to treatment with 50 ng/ml of VEGF165 or vehicle controls for various lengths. Equal amounts of protein lysates were analyzed by SDS-PAGE and blotted with the indicated antibodies. Proteins were transferred using Tris-Glycine buffer with 20% Methanol (Proteonomics grade) (Apex BioResearch Products). Membranes were first incubated with 5% milk in TBST, pH 7.6 (TEKnova, Hollister, CA), followed by blotting with primary and secondary antibodies. ECL anti-rabbit IgG, horseradish peroxidase linked whole antibody from donkey or sheep anti-mouse were obtained from GE Healthcare (UK limited). SuperSignal West Dura Extended Duration substrate was from ThermoFisher Scientific. In some cases, the same PVDF membranes were stripped by 8-min incubation in the Restore Plus Western Blot Stripping Buffer (ThermoFisher Scientific) to show total specific protein expression, followed by second stripping for (3-actin expression.

VEGFR2 = VEGFR2 western blot in BCECs (molecular mass, phosphorylation, PNGase F); type: cell-based, bovine
Protocol: Glycerol-free PNGase F was obtained from New England Biolabs (Ipswich, MA). Briefly, BCECs were lysed with NP-40 containing proteinase inhibitors (Thermo Scientific, Waltham, MA). Lysates were cleared at 4° C. at 5000 g for 25 mins. Total protein content was measured using Pierce BCA protein assay kit (Thermo Scientific). 20 mg of protein was mixed with 10× denaturing buffer and H2O to a total volume of […]. Glycoproteins were denatured at 100° C. for 10 mins, followed by adding Glycobuffer and PNGase F. The reaction was carried out at 37° C. for 2 hr.
as §1

[2] = system: BCEC confluent monolayers; test: BCEC scratch assay; type: cell-based, bovine
Protocol: BCECs (passage 6-10) and HUVEC (passage 6-8) were used in this assay. Cells were grown until about 80% confluency in 6-well plates, washed twice with PBS and then starved in serum-free DMEM (low Glucose, Hyclone) for 5 hrs before making a “scratch” using 1 ml tip. Cell monolayers were briefly washed once with serum-free media, followed by various treatments in media containing 1% FBS. 48 hrs later, the assay was stopped by adding 2 ml 4% paraformaldehyde. 20 min later, fixed cells were stained with 1 ml Crystal Violet (Sigma). Plates were washed gently under the running tap water and air-dried before taking pictures. Images were acquired by ZEISS Discovery […] microscopy equipped with […] camera. Quantification of wound closure was done using AxioVision LE Rel.4.4 software. Six images were taken for each sample and six measurements (in pixel) were made on each image using AxioVision LE Re1.4.4 software.

ischemic hindlimb = test: Hindlimb ischemia model and evaluation of blood flow; type: in vivo, mouse; conditions: for blood vessel density vs H2O-treated control (CD31): 3 weeks post-ligation; for blood flow recovery one week after surgery: 20% ManN orally or 1 mg/ml Kif ip every other day, H2O group 25%
Protocol: The angiogenic effects of ManN and Kif in a mouse hindlimb ischemia model were assessed. The activity of ManN in a chronic ischemia model that might more specifically reflect its effects as an endothelial cell mitogen and a pro-angiogenic factor was assessed, and the hindlimb ischemia model in the mouse was considered. Several variants have been described, depending on which vessel is occluded. The variant chosen consists in ligation and excision of the femoral artery, which results in more severe ischemia compared to simple femoral artery ligation. Occlusion of two vessels produces more severe ischemia, but has the disadvantage of inducing severe pain and distress, as well as frequent ulcerations and necrosis in mice.
Oral administration of ManN was tested in this femoral artery ligation-excision model. Since Kif has been previously administered intraperitoneally for in vivo studies, this route was employed. Laser Doppler Perfusion Imaging (LDPI) was used as a non-invasive method to monitor time and extent of the blood flow recovery in the ischemic limb. Serial examination of blood flow was taken with LDPI and increment of the perfusion ratio of ischemic (ligated; left side) to non-ischemic (sham; right side) hindlimbs after ligation was used to indicate a recovery of blood flow. Starting immediately after surgery, mice were orally fed with 20% ManN or 1 mg/ml Kif ip every other day, as described in methods. One week after surgery, the perfusion ratio in H2O-fed group indicated a blood flow recovery of […], a value that is in good agreement with published data with the same type of lesion, in the same strain of mice.
C57BL/6 male mice (6-8 weeks old) were subjected to unilateral hindlimb surgery under anesthesia with ketamine/xylazine cocktail. Briefly, the left femoral artery was separated from the vein and nerve, ligated proximally, and excised. The right hindlimb served as control. Blood flow was measured by using a laser Doppler perfusion imager (PeriScan PSI; Perimed). Ischemic and nonischemic limb perfusion was measured before and after surgery and 1, 2 and 3 weeks later. After surgery, mice were randomly allocated to different groups (8 mice for each group). 200 μl of 20% ManN was orally administrated every other day from 3rd day after surgery. 200 μl of 1 mg/nil Kif was administrated through ip injection every other day. H2O was used as a vehicle control. The final blood flow values were expressed as the ratio of ischemic to nonischemic hindlimb perfusion from the same animal. Quantification of blood vessel area was carried out as described.

N[C@H](C=O)[C@@H](O)[C@H](O)[C@H](O)CO [ManN, 2-Amino-2-deoxy-D-mannose]
synergy between ManN and VEGF in promoting Bip or CHOP expression (Bip, CHOP, ATF-6; FIG. 5B): No synergy | time of CHOP induction (Bip, CHOP, ATF-6; ManN, dose-dependent): about 6 hours | Bip expression (Bip, CHOP, ATF-6; growing cells deprived of growth factor, evident at 24 and 48 hours): significantly turn on Bip expression in a concentration-dependent manner | activation of eNOS and ACC ([1]; 40 μM ManN, within 10-30 minutes): significantly activated | activation of ERK, AKT, mTOR and CREB ([1]; 40 μM, BCECs): activated | time to stimulation of ERK, AKT and CREB after adding ManN ([1]; 40 μM, BCECs): 10 to 30 min | activation of ERK, AKT and CREB with ManN plus VEGF vs either alone ([1]; both ManN and VEGF present): enhancement in activation | concentration from which VEGFR2 apparent molecular mass shifts (VEGFR2; BCECs and BRECs): ≥ 40 µM | duration of ManN effects on protein mass in the absence of exogenous ManN (VEGFR2; BCECs, FIG. 4E): at least 8 hours | protein mass of av integrin, Neuropilin-1, VE-cadherin and bFGFR1 (VEGFR2; ManN in BCEC): affected as well | VEGFR2 phosphorylation in response to VEGF (VEGFR2; ManN pre-treated cells): decreased | reversibility of VEGFR2 molecular mass change after ManN removal (VEGFR2; after 24 hours): completely reverse | ligand-independent VEGFR2 activation (VEGFR2; after ManN addition in BCECs): No ligand-independent VEGFR2 activation | dependence of ManN effects on VEGFR2 signaling (VEGFR2; experiments with axitinib): not dependent on VEGFR2 signaling | specificity of VEGFR2 molecular mass shift (VEGFR2; hexosamines and derivatives at 40 μM, 24 hours): unique to ManN among hexosamines and their derivatives | extent of loss of VEGFR2 glycosylation (PNGase F treatment) (VEGFR2; μM concentrations of ManN): not all the glycosylation on VEGFR2 was abolished | closure of the scratched area vs control ([2]; 40 μM ManN or 50 ng/ml of VEGF, after 48 hours): significantly accelerated BCEC migration and/or proliferation | additivity of ManN and VEGF in scratch assay ([2]; both ManN and VEGF): additivity was observed | blood vessel density vs H2O-treated control (CD31) (ischemic hindlimb): 2.3 times higher | blood flow recovery one week after surgery (ischemic hindlimb): about 40%

O=C1N[C@@H]2[C@@H](O)[C@@H](O)[C@H](O)[C@@H](CO)N2C1=O [Kif, Kifunensine, reference compound]
Bip expression by glycosylation inhibitors (Bip, CHOP, ATF-6; media without growth factors for 24 hours): dose-dependent induction of Bip expression | activation of ERK and AKT in BCECs by glycosylation inhibitors ([1]; 40 μM, FIG. 7E): significantly activate ERK and AKT | VEGFR2 molecular mass on SDS-PAGE after glycosylation inhibitors (VEGFR2; 24 hours): reduction in VEGFR2 molecular mass | gap closing in BCEC scratch assay by glycosylation inhibitors ([2]; over 48 hours relative to control): significant activity | blood vessel density vs H2O-treated control (CD31) (ischemic hindlimb): 1.8 times higher | blood flow recovery one week after surgery (ischemic hindlimb): ~47%
